Reference: US20120184548A1, “CARBOXYLIC ACID ARYL AMIDES” (priority 2011, published 2012)

How the values were obtained:
[1] = molecular target: T1, Human DYRK1B (Homo sapiens, UniProt Q9Y463); assay: DYRK1B Kinase TR-FRET (IMAP-Tb) Assay; assay type: biochemical; conditions: for IC50: TR-FRET, ATP 70 μM, 37° C. for 60 minutes, averages of multiple runs, read-out: Enzyme IC50 DYRK1B; for inhibition at 10 µM: 10 μM test compound, reported where IC50 was not determined, read-out: Enzyme DYRK1B % inhibition at 10 μM test compound concentration
T1 construct: purchased Invitrogen PR8350B (former PV4649)
T1 sequence (Q9Y463 whole entry): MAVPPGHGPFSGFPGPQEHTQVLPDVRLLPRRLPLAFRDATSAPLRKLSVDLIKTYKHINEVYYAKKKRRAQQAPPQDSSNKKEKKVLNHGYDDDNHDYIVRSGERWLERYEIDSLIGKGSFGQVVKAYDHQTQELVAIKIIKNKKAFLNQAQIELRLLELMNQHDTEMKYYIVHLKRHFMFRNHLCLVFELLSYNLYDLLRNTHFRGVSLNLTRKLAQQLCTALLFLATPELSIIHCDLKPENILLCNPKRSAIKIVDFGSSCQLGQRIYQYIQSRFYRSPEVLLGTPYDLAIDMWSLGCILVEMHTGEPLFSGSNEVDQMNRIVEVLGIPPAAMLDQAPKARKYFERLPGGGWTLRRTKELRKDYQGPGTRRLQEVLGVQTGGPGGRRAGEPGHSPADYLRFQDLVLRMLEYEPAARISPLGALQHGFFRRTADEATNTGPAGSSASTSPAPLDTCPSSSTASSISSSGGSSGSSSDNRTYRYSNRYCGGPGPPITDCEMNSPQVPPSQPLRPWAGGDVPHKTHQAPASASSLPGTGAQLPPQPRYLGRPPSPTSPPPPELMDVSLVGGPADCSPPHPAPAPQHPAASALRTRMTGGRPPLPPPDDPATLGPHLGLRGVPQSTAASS
Source text: The kinase TR-FRET (IMAP-Tb) assay uses a fluorescence labeled substrate peptide in the kinase reaction. Upon phosphorylation by the kinase, phosphopeptide is produced, which will be detected by the binding solution provided in IMAP TR-FRET binding kit. After the completion of the kinase reaction, the reaction will be stopped by adding the binding solution containing terbium tracer. This tracer is immobilized on the surface of the IMAP beads, which also contain metal ions on the beads that bind to the phospho-groups of the products. Thus the phosphorylated product of the reaction can enter into close proximity to the tracer, producing resonance energy transfer. Due to the long lifetime of terbium (Tb) fluorescence the detection can be run in time resolved mode, which virtually eliminates fluorescence interference from assay components or compounds. […] IC50 is the amount of test compound that inhibits 50% of the activity of DYRK1B in this assay. […] 1. Human DYRK1B: from Invitrogen. Part # PR8350B (former PV4649) 2. Substrate Peptide: RRRFRPASPLRGPPK 3. IMAP TR-FRET IPP Explorer Kit: from Molecular Devices. Part # R8157 4. Kinase Assay Buffer (KAB): 10 mM HEPES pH 7.0, 50 mM NaCl, 5 mM MgCl2, 1 mM DTT, 1 mM NaVO4, 200 μg/mL BSA (0.02%) 5. Assay Plate: Remp polypropylene clear 384-well microplate. Cat#23490-102 6. Detection Plate: Costa black 384-well microplate. Cat #3710 Assay Procedure: This assay was performed as follows: 1. Transfer 1.5 μL of 20× compound solution to each well of an assay plate. 2. Add to each well 22.5 μL of KAB Buffer. 3. Add to each well 3 μL of the solution of DYRK1B and ATP. […] Add to each well 3 μL of the substrate peptide. […] Incubate the assay plates at 37° C. for 60 minutes. 6. Add 18 μL of Detection Solution (1:800 diluted Progress bead stock, 1:400 diluted Tb stock, 80% Buffer A, and 20% Buffer B) into each well of detection plates. 7. Transfer 6 μL of assay solution from the assay plate to the detection plate. 8. Shake detection plates for 30 minutes. 9. Read plates in Envision with wavelength set at excitation 340 nm for Tb, emission 490 nm, and […]. 10. Calculation: TR-FRET Signal=(Reading at […])×2000000

[2] = molecular target: T2, Human DYRK1A (Homo sapiens, UniProt Q13627); assay: DYRK1A Kinase TR-FRET (IMAP-Tb) Assay; assay type: biochemical; conditions: for IC50: TR-FRET, ATP 70 μM, 37° C. for 60 minutes, averages of multiple runs, read-out: Enzyme IC50 DYRK1A; for inhibition at 10 µM: 10 μM test compound, reported where IC50 was not determined, read-out: Enzyme DYRK1A % inhibition at 10 μM test compound concentration
T2 construct: purchased Invitrogen PV3997
Source text: The kinase TR-FRET (IMAP-Tb) assay uses a fluorescence labeled substrate peptide in the kinase reaction. Upon phosphorylation by the kinase, phosphopeptide is produced, which will be detected by the binding solution provided in IMAP TR-FRET binding kit. After the completion of the kinase reaction, the reaction will be stopped by adding the binding solution containing terbium tracer. This tracer is immobilized on the surface of the IMAP beads, which also contain metal ions on the beads that bind to the phospho-groups of the products. Thus the phosphorylated product of the reaction can enter into close proximity to the tracer, producing resonance energy transfer. Due to the long lifetime of terbium (Tb) fluorescence the detection can be run in time resolved mode, which virtually eliminates fluorescence interference from assay components or compounds.
The TR-FRET signal measurement from this assay, given as an IC50 measurement, is a measure of a test compound's ability to interfere with the phosphorylation of the peptide substrate, that is it inhibits the phosphorylation of the substrate peptide by DYRK1A, and is thus a measure of the test compound's ability to inhibit the activity of DYRK1A.
1. Human DYRK1A: from Invitrogen. Part # PV3997
2. Substrate Peptide: […]
3. IMAP TR-FRET IPP Explorer Kit: from Molecular Devices. Part # R8157 4. Kinase Assay Buffer (KAB): 10 mM HEPES pH 7.0, 50 mM NaCl, 5 mM MgCl2, 1 mM DTT, 1 mM NaVO4, 200 μg/mL BSA (0.02%) 5. Assay Plate: Remp polypropylene clear 384-well microplate. […] Detection Plate: Costa black 384-well microplate. […] Transfer 1.5 μL of 20× compound solution to each well of an assay plate. 2. Add to each well 22.5 μL of KAB Buffer. 3. Add to each well 3 μL of the solution of DYRK1A and ATP. […] Add to each well 3 μL of the substrate peptide. The assay concentration is 1.0 μM 5. Incubate the assay plates at 37° C. for 60 minutes. 6. Add 18 μL of Detection Solution (1:800 diluted Progress bead stock, 1:400 diluted Tb stock, 80% Buffer A, and 20% Buffer B) into each well of detection plates. 7. Transfer 6 μL of assay solution from the assay plate to the detection plate. 8. Shake detection plates for 30 minutes. 9. Read plates in Envision with wavelength set at excitation 340 nm for Tb, emission 490 nm, and […].

| Structure (SMILES) | IC50 [1] | IC50 [2] | inhibition at 10 µM [2] | inhibition at 10 µM [1] |
| --- | --- | --- | --- | --- |
| COCCOc1cc2cc(C(=O)Nc3cc(C(=O)OC)ccc3C)c(=O)[nH]c2cc1OCCOC [Example 25, 3-{[6,7-Bis-(2-methoxy-ethoxy)-2-oxo-1,2-dihydro-quinoline-3-carbonyl]-amino}-4-methyl-benzoic acid methyl ester] | 911 nM | 604 nM |  |  |
| COCCOc1cc2[nH]c(=O)c(C(=O)Nc3cc(-c4nnn[nH]4)ccc3C)cc2cc1OC [Example 27, 6-Methoxy-7-(2-methoxy-ethoxy)-2-oxo-1,2-dihydro-quinoline-3-carboxylic acid [2-methyl-5-(1H-tetrazol-5-yl)-phenyl]-amide] | 6590 nM |  | 41% |  |
| COC(=O)c1ccc(Cl)c(NC(=O)C2Cc3cc(OC)c(OC)cc3NC2=O)c1 (centres unmarked) [Example 71, 4-Chloro-3-[(6,7-dimethoxy-2-oxo-1,2,3,4-tetrahydro-quinoline-3-carbonyl)-amino]-benzoic acid methyl ester] | 860 nM | 690 nM |  |  |
| COc1cc2[nH]c(=O)c(C(=O)Nc3cc(C(=O)NCc4cccc(Cl)c4)ccc3C)cc2cc1O [Example 68, 6-Hydroxy-7-methoxy-2-oxo-1,2-dihydro-quinoline-3-carboxylic acid [5-(3-chloro-benzylcarbamoyl)-2-methyl-phenyl]-amide] | 189 nM | 58 nM |  |  |
| COc1cc2cc(C(=O)Nc3cc(C(=O)NC(CCN)c4ccccc4)ccc3C)c(=O)[nH]c2cc1OC (stereo in doubt) [Example 48, 6,7-Dimethoxy-2-oxo-1,2-dihydro-quinoline-3-carboxylic acid [5-((S)-3-amino-1-phenyl-propylcarbamoyl)-2-methyl-phenyl]-amide] |  | 1020 nM |  | 39% |
| COc1cc2cc(C(=O)Nc3cc(C(=O)NCC4CCCCC4)ccc3C)c(=O)[nH]c2cc1OC [Example 41, 6,7-Dimethoxy-2-oxo-1,2-dihydro-quinoline-3-carboxylic acid [5-(cyclohexylmethyl-carbamoyl)-2-methyl-phenyl]-amide] | 2590 nM | 4590 nM |  |  |
| COc1cc2cc(C(=O)Nc3cc(C(=O)NCc4cccc(Cl)c4)ccc3C)c(=O)[nH]c2cc1OC [Example 40, 6,7-Dimethoxy-2-oxo-1,2-dihydro-quinoline-3-carboxylic acid [5-(3-chloro-benzylcarbamoyl)-2-methyl-phenyl]-amide] |  | 182 nM |  | 34% |
| COCCOc1cc2cc(C(=O)Nc3cc(-c4nnn[nH]4)ccc3C)c(=O)[nH]c2cc1OCCOC [Example 28, 6,7-Bis-(2-methoxy-ethoxy)-2-oxo-1,2-dihydro-quinoline-3-carboxylic acid [2-methyl-5-(1H-tetrazol-5-yl)-phenyl]-amide] | 5050 nM |  | 49% |  |
| COc1cc2cc(C(=O)Nc3ccncc3Cl)c(=O)[nH]c2cc1OC [Example 36, 6,7-Dimethoxy-2-oxo-1,2-dihydro-quinoline-3-carboxylic acid (3-chloro-pyridin-4-yl)-amide] |  | 239 nM |  | 28% |
| COc1cc2cc(C(=O)Nc3cc(C(=O)N[C@H](CO)CC(C)C)ccc3C)c(=O)[nH]c2cc1OC [Example 65, (S)-N-(5-(1-Hydroxy-4-methylpentan-2-ylcarbamoyl)-2-methylphenyl)-6,7-dimethoxy-2-oxo-1,2-dihydroquinoline-3-carboxamide] |  | 4310 nM |  | 26% |
| COc1cc2cc(C(=O)Nc3cc(-c4nnn[nH]4)ccc3C)c(=O)[nH]c2cc1OC [Example 22, 6,7-Dimethoxy-2-oxo-1,2-dihydro-quinoline-3-carboxylic acid [2-methyl-5-(1H-tetrazol-5-yl)-phenyl]-amide] | 719 nM | > 10000 nM |  |  |
| COc1cc2cc(C(=O)Nc3cc(C(=O)NCCCN4CCOCC4)ccc3C)c(=O)[nH]c2cc1OC [Example 32, 6,7-Dimethoxy-2-oxo-1,2-dihydro-quinoline-3-carboxylic acid [2-methyl-5-(3-morpholin-4-yl-propylcarbamoyl)-phenyl]-amide] | > 10000 nM | 3620 nM |  |  |
| COc1cc2c(cc1OC)NC(=O)C(C(=O)Nc1cc(C(=O)NCc3ccccc3)ccc1Cl)C2 (centres unmarked) [Example 73, 6,7-Dimethoxy-2-oxo-1,2,3,4-tetrahydro-quinoline-3-carboxylic acid (5-benzylcarbamoyl-2-chloro-phenyl)-amide] | 2340 nM | 880 nM |  |  |
| COc1cc2cc(C(=O)Nc3cc(-c4ncco4)ccc3C)c(=O)[nH]c2cc1OC [Example 51, 6,7-Dimethoxy-2-oxo-1,2-dihydro-quinoline-3-carboxylic acid (2-methyl-5-oxazol-2-yl-phenyl)-amide] |  | 592 nM |  | 42% |
| COc1cc2cc(C(=O)Nc3cc(C(=O)N[C@@H](CO)c4ccccc4)ccc3C)c(=O)[nH]c2cc1OC [Example 56, (R)-N-(5-(2-Hydroxy-1-phenylethylcarbamoyl)-2-methylphenyl)-6,7-dimethoxy-2-oxo-1,2-dihydroquinoline-3-carboxamide] | > 10000 nM |  | 31% |  |
| COc1cc2cc(C(=O)Nc3cc(C(=O)N[C@@H](CO)CC(C)C)ccc3C)c(=O)[nH]c2cc1OC [Example 66, (R)-N-(5-(1-Hydroxy-4-methylpentan-2-ylcarbamoyl)-2-methylphenyl)-6,7-dimethoxy-2-oxo-1,2-dihydroquinoline-3-carboxamide] |  | > 10000 nM |  | 13% |
| COc1cc2cc(C(=O)Nc3cc(C(=O)N(C)C)ccc3Cl)c(=O)[nH]c2cc1OC [Example 20, 6,7-Dimethoxy-2-oxo-1,2-dihydro-quinoline-3-carboxylic acid (2-chloro-5-dimethylcarbamoyl-phenyl)-amide] | 5090 nM | 1130 nM |  |  |
| COCCOc1cc2cc(C(=O)Nc3cc(C(=O)N[C@@H](CCN)c4ccccc4)ccc3C)c(=O)[nH]c2cc1OC (single isomer, unassigned) [Example 59] | 4910 nM | 2380 nM |  |  |
| COc1cc2c(cc1OC)NC(=O)C(C(=O)Nc1cc(C(=O)NCc3ccccc3)ccc1C)C2 (centres unmarked) [Example 74, 6,7-Dimethoxy-2-oxo-1,2,3,4-tetrahydro-quinoline-3-carboxylic acid (5-benzylcarbamoyl-2-methyl-phenyl)-amide] | > 10000 nM |  | 30% |  |
